Source: article PMC10947113, “A Bivalent Activatable Fluorescent Probe for Screening and Intravital Imaging of Chemotherapy‐Induced Cancer Cell Death” (Angewandte Chemie (Weinheim an Der Bergstrasse, Germany), 2021)
Starred links: 1 amine or outer side, 2 acyl side, 3 side chain; linkers in the order of their positions; H or OH if unused. Non-standard residues stand in square brackets, D forms with d. Residues, ends and D or L forms follow the SMILES beside them. X1 = CC1=CC(C)=[N+]2C1=C(c1cccc(-c3[nH]c4ccccc4c3C[C@H](N[*:1])C(=O)[*:2])c1)c1ccc(-c3ccc(C)s3)n1[B-]2(F)F

Columns and labels:
[1] = test system: MCF7 cells; test: Cell viability, TACS MTT cell proliferation assay, MCF7; format: cell-based, human; conditions: different working concentrations, 3 h, means ± SD (n=5), ns for p>0.05
Experimental: (§1) Figure S15. Cell viability experiments (TACS® MTT cell proliferation assay) after incubation of Apotracker Red in breast cancer cell lines (a: MCF7 cells, b: MDA-MB-231 cells) at different concentrations for 3 h. Data presented as means ± SD (n=5). P values obtained from one- way ANOVA using multiple comparisons (ns for p>0.05).
(§2) Figure S16. Quantification of E GFP+ macrophages in tumours from untreated and cisplatin-treated mice by time- lapse imaging on a spinning disk confocal microscope (λexc: 488 nm). Data presented as means ± SD of 8 random areas in 2- 3 mice per group (untreated or treated with 10 μg g-1 cisplatin for 72 h). […]

[2] = test system: MDA-MB-231 cells; test: Cell viability, TACS MTT cell proliferation assay, MDA-MB-231; format: cell-based, human; conditions: different working concentrations, 3 h, means ± SD (n=5), ns for p>0.05
Experimental: as §1, §2

[3] = Stability analysis in mouse serum; format: in vitro ADME; conditions: 24 h, 37 °C, 500 rpm shaker, 50 μM (method) or 25 μM (Figure S14), CH3CN protein precipitation, HPLC traces and fluorescence emission (exc 520 nm)
Experimental: Figure S14. Stability analysis of Apotracker Red in mouse serum. HPLC traces of Apotracker Red (25 μM) after incubation in PBS buffer or mouse serum for 24 h at 37 °C . […]
fluorescence emission of Apotracker Red before and after incubation in mouse serum and […]
(1 picture or pasted object on this page, not shown here) […]
r.t., followed by separation from erythrocytes by centrifugation for 10 min, 2, 000 g at r.t. Sera were transferred into new tubes and stored at - 20°C until use. 50 μM Apotracker Red in PBS or in serum were incubated fo r 24 h at 37 °C on a vertical shaker at 500 rpm . A s control s, seru m without peptide and freshly aliquoted 50 μM Apotracker Red in mouse serum were used.
Fluorescence spectra were recorded after excitation at 520 nm. For HPLC measurements, proteins were precipitated by addition of CH3CN and centrifugation at 300 g fo r 5 m in a t r.t. and the resulting supernatants were injected.
Lipid layer assays . […] The limit of detection (LoD) of Apotracker Red for PtdSer was determined by fluorescence titration of serial dilutions of Pt dSer layers after incubation with Apotracker Red (1 μM, PBS) at 25 °C for 40 min. The LoD was calculated using the equation LoD = (3 × σ)/k, where σ is the standard deviation of blank solutions and k is the slope of the linear regression fit. Data was recorded on Cytation 3 (exc: 530 nm). […]

What does the source list for `CC1=CC(C)=[N+]2C1=C(c1cccc(-c3[nH]c4ccccc4c3C[C@@H]3NC(=O)[C@H](Cc4ccccc4)NC(=O)[C@H](Cc4c[nH]c5ccccc45)NC(=O)[C@H](CCCCN)NC(=O)[C@H](CCCCN)NC(=O)[C@H](CCCNC(=N)N)NC(=O)CNC3=O)c1)c1ccc(-c3ccc(C)s3)n1[B-]2(F)F` [Apotracker Red] (cyclo(F[X1]GRKKW))?
cell toxicity (MTT cell viability), MCF7 [1]: did not cause cell toxicity; cell toxicity (MTT cell viability), MDA-MB-231 [2]: did not cause cell toxicity; proteolytic stability in mouse serum [3]: good proteolytic stability for up to 24 h
